Our source for the EC50 and IC50 values is US7214690B2, “Tricyclic quinolinone and tricyclic quinoline androgen receptor modulator compounds and methods” (Ligand Pharmaceuticals Incorporated, priority 2001, dated 2007).

Test [1] concerns the target T1, PR (Homo sapiens, UniProt P06401).
T1 construct: expressed in transfected cells; host or cells: background cell substantially devoid of endogenous IRs (CV-1 described for the co-transfection assay)
T1 sequence (P06401 1-933): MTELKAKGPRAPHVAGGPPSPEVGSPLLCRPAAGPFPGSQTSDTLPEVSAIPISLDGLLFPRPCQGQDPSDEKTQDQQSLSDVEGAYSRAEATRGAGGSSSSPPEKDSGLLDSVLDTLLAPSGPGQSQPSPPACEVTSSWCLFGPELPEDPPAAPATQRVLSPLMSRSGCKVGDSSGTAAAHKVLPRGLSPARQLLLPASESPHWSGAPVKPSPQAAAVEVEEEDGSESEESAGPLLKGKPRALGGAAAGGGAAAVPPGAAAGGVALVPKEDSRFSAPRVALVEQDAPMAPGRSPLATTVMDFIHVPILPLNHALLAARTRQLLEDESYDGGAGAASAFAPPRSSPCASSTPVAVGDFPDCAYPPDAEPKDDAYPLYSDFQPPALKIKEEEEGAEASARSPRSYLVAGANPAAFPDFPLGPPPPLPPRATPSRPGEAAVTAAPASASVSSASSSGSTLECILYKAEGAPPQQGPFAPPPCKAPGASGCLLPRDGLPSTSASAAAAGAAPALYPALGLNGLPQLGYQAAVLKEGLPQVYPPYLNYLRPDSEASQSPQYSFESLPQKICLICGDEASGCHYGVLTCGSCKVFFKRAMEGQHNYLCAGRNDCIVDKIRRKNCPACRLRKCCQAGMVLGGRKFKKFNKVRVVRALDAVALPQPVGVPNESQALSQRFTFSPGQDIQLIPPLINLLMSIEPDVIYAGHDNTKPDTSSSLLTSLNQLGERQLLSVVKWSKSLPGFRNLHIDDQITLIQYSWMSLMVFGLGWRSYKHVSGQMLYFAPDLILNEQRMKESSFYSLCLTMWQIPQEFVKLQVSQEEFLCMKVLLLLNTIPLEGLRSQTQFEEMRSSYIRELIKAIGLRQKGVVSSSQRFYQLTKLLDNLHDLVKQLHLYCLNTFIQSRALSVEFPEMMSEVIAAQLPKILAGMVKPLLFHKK
Nature of the test: co-transfection assay, PR. It counts as cell-based. As for the experimental part:
(§1) CV-1 cells (African green monkey kidney fibroblasts) were cultured in the presence of Dulbecco's Modified Eagle Medium (DMEM) supplemented with 10% charcoal resin-stripped fetal bovine serum (CH-FBS) then transferred to 96-well microtiter plates one day prior to transfection.
(§2) Three to four replicates were used for each sample.
(§3) After 40 hours, the cells were washed with PBS, lysed with a Triton X-100-based buffer and assayed for LUC and β-Gal activities using a luminometer or spectrophotometer, respectively. For each replicate, the normalized response (NR) was calculated as: LUC response/β-Gal rate • where β-Gal rate=β-Gal/β-Gal incubation time.

Test [2] concerns the target T2, MR (Homo sapiens, UniProt P08235).
T2 construct: expressed in transfected cells; host or cells: background cell substantially devoid of endogenous IRs (CV-1 described for the co-transfection assay)
T2 sequence (P08235 1-984): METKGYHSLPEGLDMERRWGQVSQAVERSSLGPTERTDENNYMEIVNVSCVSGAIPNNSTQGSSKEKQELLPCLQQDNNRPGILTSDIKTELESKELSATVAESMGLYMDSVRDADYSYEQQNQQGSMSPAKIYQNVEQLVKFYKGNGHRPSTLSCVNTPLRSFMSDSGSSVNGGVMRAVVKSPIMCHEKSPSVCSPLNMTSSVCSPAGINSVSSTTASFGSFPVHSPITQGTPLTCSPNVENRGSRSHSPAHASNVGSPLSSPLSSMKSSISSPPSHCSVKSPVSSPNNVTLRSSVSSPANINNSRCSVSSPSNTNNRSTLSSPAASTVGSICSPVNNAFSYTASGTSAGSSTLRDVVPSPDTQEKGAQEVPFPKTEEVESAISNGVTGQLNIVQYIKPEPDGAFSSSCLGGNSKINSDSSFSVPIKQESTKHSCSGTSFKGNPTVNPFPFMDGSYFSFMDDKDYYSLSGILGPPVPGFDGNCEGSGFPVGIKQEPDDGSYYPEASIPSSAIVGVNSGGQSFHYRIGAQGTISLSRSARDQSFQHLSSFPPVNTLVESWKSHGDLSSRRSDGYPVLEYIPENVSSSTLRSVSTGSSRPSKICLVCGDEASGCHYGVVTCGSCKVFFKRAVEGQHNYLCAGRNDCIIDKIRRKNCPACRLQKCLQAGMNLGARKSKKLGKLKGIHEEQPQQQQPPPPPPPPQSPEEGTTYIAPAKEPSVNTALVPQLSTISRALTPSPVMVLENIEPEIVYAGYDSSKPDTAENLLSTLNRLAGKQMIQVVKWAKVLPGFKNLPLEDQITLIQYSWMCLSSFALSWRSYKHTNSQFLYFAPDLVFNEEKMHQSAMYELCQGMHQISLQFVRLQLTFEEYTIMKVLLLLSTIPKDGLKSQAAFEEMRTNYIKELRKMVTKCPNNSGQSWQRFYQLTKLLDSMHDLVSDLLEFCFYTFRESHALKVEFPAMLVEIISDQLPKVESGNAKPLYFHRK
Kind of test: co-transfection assay, MR. It counts as cell-based. The procedure:
as §1, §2, §3

The term EC50 denotes the concentration that produces a half-maximal response. Higher therefore signals weaker potency. One may read the IC50 as the point on the concentration scale where inhibition reaches its midpoint. A lower IC50 goes with greater potency in that assay. In the case of `C=CCN1c2ccc3[nH]c(=O)cc(C(F)(F)F)c3c2OC[C@H]1CC` [Compound 114, (3R)-4-Allyl-3-ethyl-2,3,4,7-tetrahydro-10-(trifluoromethyl)-8H-[1,4]oxazino[2,3-f]quinolin-8-one], in test [1], the EC50 is above 10 µM. The same compound registered an IC50 in test [2] above 10 µM.

Consider `CC(C)[C@@H]1COc2c(ccc3[nH]c(=O)cc(C(F)(F)F)c23)N1CC(F)(F)Cl` [Compound 124, (3R)-4-(2-Chloro-2,2-difluoroethyl)-2,3,4,7-tetrahydro-3-isopropyl-10-(trifluoromethyl)-8H-[1,4]oxazino[2,3-f]quinolin-8-one], for which, in test [1], the EC50 is above 10 µM. This compound also registered an IC50 in test [2] above 10 µM.

As to `CC[C@@H]1COc2c(ccc3[nH]c(=O)cc(C(F)(F)F)c23)N1CC(F)(F)F` [Compound 110, (3R)-3-Ethyl-2,3,4,7-tetrahydro-4-(2,2,2-trifluoroethyl)-10-(trifluoromethyl)-8H-[1,4]oxazino[2,3-f]quinolin-8-one], the EC50 in test [1] is above 10 µM. Besides, in test [2], the 50% inhibitory concentration (IC50) is 1.27 µM.
